Test results taken from US8748415B2 (priority 2011, dated 2014).

Test system: recombinant NL4-3 virus (Renilla luciferase in nef, Gag P373S)
Experiment: HIV cell culture assay (luciferase activity in MT-2 cells infected with NLRluc recombinant virus)
Format: cell-based
Settings: NL43, MT-2 cells infected 4-5 days with NLRluc recombinant virus
Method in brief: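 Activity was read as luciferase output (Dual Luciferase reagents premixed with lysis solution) after 4–5 days of infection in serially diluted inhibitor. Host cells were MT-2 in 10% FBS RPMI. The reporter virus came from transfected 293T cells and was titered on MT-2.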

Row | Compound | EC50 (class symbol) [nM] | EC50 (numeric value) [nM]
1 | C=C(C)[C@@H]1CC[C@]2(CNCC(OCC)OCC)CC[C@]3(C)[C@H](CC[C@@H]4[C@@]5(C)CC=C(c6ccc(C(=O)O)cc6)C(C)(C)[C@@H]5CC[C@]43C)[C@@H]12 [Example 42, 4-((1R,3aS,5aR,5bR,7aR,11aS,11bR,13aR,13bR)-3a-((2,2-diethoxyethylamino)methyl)-5a,5b,8,8,11a-pentamethyl-1-(prop-1-en-2-yl)-2,3,3a,4,5,5a,5b,6,7,7a,8,11,11a,11b,12,13,13a,13b-octadecahydro-1H-cyclopenta[a]chrysen-9-yl)benzoic acid] | < 100 | –
2 | C=C(C)[C@@H]1CC[C@]2(CNCC3CCCN3CC)CC[C@]3(C)[C@H](CC[C@@H]4[C@@]5(C)CC=C(c6ccc(C(=O)O)cc6)C(C)(C)[C@@H]5CC[C@]43C)[C@@H]12 (single isomer, unassigned) [Example 3] | – | 30
3 | C=C(C)[C@@H]1CC[C@]2(CNCC(=O)N(C)C)CC[C@]3(C)[C@H](CC[C@@H]4[C@@]5(C)CC=C(c6ccc(C(=O)O)cc6)C(C)(C)[C@@H]5CC[C@]43C)[C@@H]12 [Example 39, 4-((1R,3aS,5aR,5bR,7aR,11aS,11bR,13aR,13bR)-3a-((2-(dimethylamino)-2-oxoethylamino)methyl)-5a,5b,8,8,11a-pentamethyl-1-(prop-1-en-2-yl)-2,3,3a,4,5,5a,5b,6,7,7a,8,11,11a,11b,12,13,13a,13b-octadecahydro-1H-cyclopenta[a]chrysen-9-yl)benzoic acid] | < 100 | –
4 | C=C(C)[C@@H]1CC[C@]2(CNCCC(=O)N3C[C@H]4CC[C@@H](C3)N4C)CC[C@]3(C)[C@H](CC[C@@H]4[C@@]5(C)CC=C(c6ccc(C(=O)O)cc6)C(C)(C)[C@@H]5CC[C@]43C)[C@@H]12 [Example 121, 4-((1R,3aS,5aR,5bR,7aR,11aS,11bR,13aR,13bR)-5a,5b,8,8,11a-pentamethyl-3a-((3-((1R,5S)-8-methyl-3,8-diazabicyclo[3.2.1]octan-3-yl)-3-oxopropylamino)methyl)-1-(prop-1-en-2-yl)-2,3,3a,4,5,5a,5b,6,7,7a,8,11,11a,11b,12,13,13a,13b-octadecahydro-1H-cyclopenta[a]chrysen-9-yl)benzoic acid] | < 100 | –
5 | C=C(C)[C@@H]1CC[C@]2(CNCCNC(C)=O)CC[C@]3(C)[C@H](CC[C@@H]4[C@@]5(C)CC=C(c6ccc(C(=O)O)cc6)C(C)(C)[C@@H]5CC[C@]43C)[C@@H]12 [Example 7, 4-((1R,3aS,5aR,5bR,7aR,11aS,11bR,13aR,13bR)-3a-((2-acetamidoethylamino)methyl)-5a,5b,8,8,11a-pentamethyl-1-(prop-1-en-2-yl)-2,3,3a,4,5,5a,5b,6,7,7a,8,11,11a,11b,12,13,13a,13b-octadecahydro-1H-cyclopenta[a]chrysen-9-yl)benzoic acid] | < 100 | –
6 | C=C(C)[C@@H]1CC[C@]2(CNCCCN3CCCC3=O)CC[C@]3(C)[C@H](CC[C@@H]4[C@@]5(C)CC=C(c6ccc(C(=O)O)c(F)c6)C(C)(C)[C@@H]5CC[C@]43C)[C@@H]12 [Example 88, 2-fluoro-4-((1R,3aS,5aR,5bR,7aR,11aS,11bR,13aR,13bR)-5a,5b,8,8,11a-pentamethyl-3a-((3-(2-oxopyrrolidin-1-yl)propylamino)methyl)-1-(prop-1-en-2-yl)-2,3,3a,4,5,5a,5b,6,7,7a,8,11,11a,11b,12,13,13a,13b-octadecahydro-1H-cyclopenta[a]chrysen-9-yl)benzoic acid] | < 100 | –
7 | C=C(C)[C@@H]1CC[C@]2(CNCCC(=O)N3CCC(=O)CC3)CC[C@]3(C)[C@H](CC[C@@H]4[C@@]5(C)CC=C(c6ccc(C(=O)O)cc6)C(C)(C)[C@@H]5CC[C@]43C)[C@@H]12 [Example 128, 4-((1R,3aS,5aR,5bR,7aR,11aS,11bR,13aR,13bR)-5a,5b,8,8,11a-pentamethyl-3a-((3-oxo-3-(4-oxopiperidin-1-yl)propylamino)methyl)-1-(prop-1-en-2-yl)-2,3,3a,4,5,5a,5b,6,7,7a,8,11,11a,11b,12,13,13a,13b-octadecahydro-1H-cyclopenta[a]chrysen-9-yl)benzoic acid] | < 100 | –
8 | C=C(C)[C@@H]1CC[C@]2(CNCC(=O)N3CCC(F)(F)CC3)CC[C@]3(C)[C@H](CC[C@@H]4[C@@]5(C)CC=C(c6ccc(C(=O)O)cc6)C(C)(C)[C@@H]5CC[C@]43C)[C@@H]12 [Example 115, 4-((1R,3aS,5aR,5bR,7aR,11aS,11bR,13aR,13bR)-3a-((2-(4,4-difluoropiperidin-1-yl)-2-oxoethylamino)methyl)-5a,5b,8,8,11a-pentamethyl-1-(prop-1-en-2-yl)-2,3,3a,4,5,5a,5b,6,7,7a,8,11,11a,11b,12,13,13a,13b-octadecahydro-1H-cyclopenta[a]chrysen-9-yl)benzoic acid] | – | 3
9 | C=C(C)[C@@H]1CC[C@]2(CNCCCN(C)C)CC[C@]3(C)[C@H](CC[C@@H]4[C@@]5(C)CC=C(c6ccc(C(=O)O)cc6)C(C)(C)[C@@H]5CC[C@]43C)[C@@H]12 [Example 6, 4-((1R,3aS,5aR,5bR,7aR,11aS,11bR,13aR,13bR)-3a-((3-(dimethylamino)propylamino)methyl)-5a,5b,8,8,11a-pentamethyl-1-(prop-1-en-2-yl)-2,3,3a,4,5,5a,5b,6,7,7a,8,11,11a,11b,12,13,13a,13b-octadecahydro-1H-cyclopenta[a]chrysen-9-yl)benzoic acid] | – | 30
10 | C=C(C)[C@@H]1CC[C@]2(CNCCN(C)CCO)CC[C@]3(C)[C@H](CC[C@@H]4[C@@]5(C)CC=C(c6ccc(C(=O)O)cc6)C(C)(C)[C@@H]5CC[C@]43C)[C@@H]12 [Example 26, 4-((1R,3aS,5aR,5bR,7aR,11aS,11bR,13aR,13bR)-3a-((2-((2-hydroxyethyl)(methyl)amino)ethylamino)methyl)-5a,5b,8,8,11a-pentamethyl-1-(prop-1-en-2-yl)-2,3,3a,4,5,5a,5b,6,7,7a,8,11,11a,11b,12,13,13a,13b-octadecahydro-1H-cyclopenta[a]chrysen-9-yl)benzoic acid] | < 100 | –
11 | C=C(C)[C@@H]1CC[C@]2(CNCCN3CCN(S(C)(=O)=O)CC3)CC[C@]3(C)[C@H](CC[C@@H]4[C@@]5(C)CC=C(c6ccc(C(=O)O)cc6)C(C)(C)[C@@H]5CC[C@]43C)[C@@H]12 [Example 179, 4-((1R,3aS,5aR,5bR,7aR,11aS,11bR,13aR,13bR)-5a,5b,8,8,11a-pentamethyl-3a-((2-(4-(methylsulfonyl)piperazin-1-yl)ethylamino)methyl)-1-(prop-1-en-2-yl)-2,3,3a,4,5,5a,5b,6,7,7a,8,11,11a,11b,12,13,13a,13b-octadecahydro-1H-cyclopenta[a]chrysen-9-yl)benzoic acid] | < 100 | –
12 | C=C(C)[C@@H]1CC[C@]2(CNC(=O)CN3CCCCS3(=O)=O)CC[C@]3(C)[C@H](CC[C@@H]4[C@@]5(C)CC=C(c6ccc(C(=O)O)cc6)C(C)(C)[C@@H]5CC[C@]43C)[C@@H]12 [Example 147, 4-((1R,3aS,5aR,5bR,7aR,11aS,11bR,13aR,13bR)-3a-((((1,1-dioxido-1,2-thiazinan-2-yl)acetyl)amino)methyl)-1-isopropenyl-5a,5b,8,8,11a-pentamethyl-2,3,3a,4,5,5a,5b,6,7,7a,8,11,11a,11b,12,13,13a,13b-octadecahydro-1H-cyclopenta[a]chrysen-9-yl)benzoic acid] | < 100 | –
13 | C=C(C)[C@@H]1CC[C@]2(CNCCN3CCS(=O)(=O)CC3)CC[C@]3(C)[C@H](CC[C@@H]4[C@@]5(C)CC=C(c6ccc(C(=O)O)cc6F)C(C)(C)[C@@H]5CC[C@]43C)[C@@H]12 [Example 94, 4-((1R,3aS,5aR,5bR,7aR,11aS,11bR,13aR,13bR)-3a-(((2-(1,1-dioxido-4-thiomorpholinyl)ethyl)amino)methyl)-1-isopropenyl-5a,5b,8,8,11a-pentamethyl-2,3,3a,4,5,5a,5b,6,7,7a,8,11,11a,11b,12,13,13a,13b-octadecahydro-1H-cyclopenta[a]chrysen-9-yl)-3-fluorobenzoic acid] | < 100 | –
14 | C=C(C)[C@@H]1CC[C@]2(CNC3(C(=O)O)CC3)CC[C@]3(C)[C@H](CC[C@@H]4[C@@]5(C)CC=C(c6ccc(C(=O)O)cc6)C(C)(C)[C@@H]5CC[C@]43C)[C@@H]12 [Example 50, 4-((1R,3aS,5aR,5bR,7aR,11aS,11bR,13aR,13bR)-3a-((1-carboxycyclopropylamino)methyl)-5a,5b,8,8,11a-pentamethyl-1-(prop-1-en-2-yl)-2,3,3a,4,5,5a,5b,6,7,7a,8,11,11a,11b,12,13,13a,13b-octadecahydro-1H-cyclopenta[a]chrysen-9-yl)benzoic acid] | < 100 | –
15 | C=C(C)[C@@H]1CC[C@]2(CNC(=O)[C@H]3CCCN3C)CC[C@]3(C)[C@H](CC[C@@H]4[C@@]5(C)CC=C(c6ccc(C(=O)O)cc6)C(C)(C)[C@@H]5CC[C@]43C)[C@@H]12 [Example 151, 4-((1R,3aS,5aR,5bR,7aR,11aS,11bR,13aR,13bR)-5a,5b,8,8,11a-pentamethyl-3a-(((R)-1-methylpyrrolidine-2-carboxamido)methyl)-1-(prop-1-en-2-yl)-2,3,3a,4,5,5a,5b,6,7,7a,8,11,11a,11b,12,13,13a,13b-octadecahydro-1H-cyclopenta[a]chrysen-9-yl)benzoic acid] | < 100 | –
16 | C=C(C)[C@@H]1CC[C@]2(CNC3(CN4CCCCC4)CC3)CC[C@]3(C)[C@H](CC[C@@H]4[C@@]5(C)CC=C(c6ccc(C(=O)O)cc6)C(C)(C)[C@@H]5CC[C@]43C)[C@@H]12 [Example 82, 4-((1R,3aS,5aR,5bR,7aR,11aS,11bR,13aR,13bR)-5a,5b,8,8,11a-pentamethyl-3a-((1-(piperidin-1-ylmethyl)cyclopropylamino)methyl)-1-(prop-1-en-2-yl)-2,3,3a,4,5,5a,5b,6,7,7a,8,11,11a,11b,12,13,13a,13b-octadecahydro-1H-cyclopenta[a]chrysen-9-yl)benzoic acid] | < 100 | –
